This passage reports Östradiolkonzentration results from patent EP0164699A2, “1,2-Beta-methylene-4-androstene and 4,6-androstadiene-3,17-dione” (SCHERING AKTIENGESELLSCHAFT, priority 1984, dated 1985).

The subject of the test is Aromatase. Kind of test: Aromatase inhibition: reduction of PMSG-stimulated estradiol secretion in rats (serum estradiol by radioimmunoassay). It counts as in vivo, Ratten. The following applies: serum of 20-day-old female rats pretreated 7 times with 100 I.U. PMSG s.c.; test substance injected 1 h before and 8 h after last PMSG; killed 24 h after last PMSG; comparison with substance A. From the text: Die durch PMSG (Pregnant Mare's Serum Gonadotropin) vermehrte Sekretion von Östradiol kann durch Applikation von Aromatasehemmern vermindert werden.
Versuch und Auswertung wurden wie folgt durchgeführt: • 20 Tage alte weibliche Ratten wurden alle 2 Tage insgesamt 7 mal mit 100 I.U. PMSG subcutan vorbehandelt. Eine Stunde vor und 8 Stunden nach der letzten PMSG-Applikation (d12) erhielten die Tiere die Testsubstanz durch Injektion. 24 Stunden nach der letzten PMSG-Applikation wurden die Tiere getötet. Im Serum wurde dann Östradiol radioimmunologisch bestimmt. In der folgenden Tabelle wird die Östradiolkonzentration in nMol/1 und die Standardabweichung angegeben. [formula]

For `C[C@]12CC[C@H]3[C@@H](C=CC4=CC(=O)[C@H]5CC5[C@@]43C)[C@@H]1CCC2=O` (some centres unmarked) [C, 1,2ß-Methylen-androsta-4,6-dien-3,17-dion], the Östradiolkonzentration result is “einen stärkeren Abfall der Östradiolkonzentration bewirken als die bekannte Substanz A”.

In the case of `C[C@]12CC[C@H]3[C@@H](CCC4=CC(=O)[C@H]5CC5[C@@]43C)[C@@H]1CCC2=O` (some centres unmarked) [B, 1,2ß-Methylen-4-androsten-3,17-dion], the Östradiolkonzentration entry was “einen stärkeren Abfall der Östradiolkonzentration bewirken als die bekannte Substanz A”.
